ChEMBL document CHEMBL1201862, “PubChem BioAssay data set” (2004)
Calls of active or inactive are those of the source.

Tests used:
[1] = target: T1, Leucine aminopeptidase (Plasmodium falciparum 3D7, UniProt Q8IL11); experiment: P. falciparum M17LAP inhibitors, primary screen, biochemical, fluorogenic H-Leu-NHMec substrate, 1536-well (AID 1619); type: functional
T1 sequence (Q8IL11 whole entry): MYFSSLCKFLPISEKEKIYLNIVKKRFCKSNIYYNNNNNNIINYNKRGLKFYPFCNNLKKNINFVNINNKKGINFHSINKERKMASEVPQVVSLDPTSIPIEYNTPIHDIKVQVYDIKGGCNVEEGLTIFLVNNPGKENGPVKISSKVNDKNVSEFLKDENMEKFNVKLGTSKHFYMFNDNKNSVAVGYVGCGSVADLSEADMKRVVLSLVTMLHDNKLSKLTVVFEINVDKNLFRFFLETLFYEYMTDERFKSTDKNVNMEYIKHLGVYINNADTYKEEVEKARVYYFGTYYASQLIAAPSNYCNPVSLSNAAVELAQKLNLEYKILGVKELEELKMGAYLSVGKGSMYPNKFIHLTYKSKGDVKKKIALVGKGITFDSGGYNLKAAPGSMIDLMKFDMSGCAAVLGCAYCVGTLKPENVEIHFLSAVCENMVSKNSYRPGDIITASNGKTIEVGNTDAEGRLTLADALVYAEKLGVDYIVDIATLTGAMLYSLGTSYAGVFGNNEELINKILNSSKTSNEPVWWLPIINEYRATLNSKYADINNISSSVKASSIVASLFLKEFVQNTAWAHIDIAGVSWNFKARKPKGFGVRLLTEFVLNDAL

[2] = target: Peroxisome proliferator-activated receptor gamma/Nuclear receptor coactivator 1 (Homo sapiens, UniProt P37231); experiment: (§1) TR-FRET dose response biochemical High Throughput Screening assay for agonists of the steroid receptor coactivator 1 (SRC-1) recruitment by the peroxisome proliferator-activated receptor gamma (PPAR gamma): non-selective agonists. [Related pubchem assays (depositor defined):AID1300, AID1808, AID504735, AID631]; type: protein assay
[3] = target: Peroxisome proliferator-activated receptor gamma/Nuclear receptor coactivator 3 (Homo sapiens, UniProt P37231); experiment: as §1, with “3 (SRC-3)” for “1 (SRC-1)”, “assays: 1301 (Confirmation screen.), 1048 (Primary screen.)]” for “assays (depositor defined):AID1300, AID1808, AID504735, AID631]”; type: functional
[4] = target: Peroxisome proliferator-activated receptor gamma/Nuclear receptor coactivator 2 (Homo sapiens, UniProt P37231); experiment: TR-FRET dose response biochemical High Throughput Screening assay for agonists of the steroid receptor coactivator 2 (SRC-2) recruitment by the peroxisome proliferator-activated receptor gamma (PPAR gamma): non-selective agonists. [Related pubchem assays: 1297, 1032 ]; type: functional
[5] = target: Intestinal-type alkaline phosphatase (Homo sapiens, UniProt P09923); experiment: activation of human intestinal alkaline phosphatase – biochemical, dose response (AID 488873); type: functional
[6] = target: Intestinal-type alkaline phosphatase (Mus musculus, UniProt P24822); experiment: mouse intestinal alkaline phosphatase activators, dose response, biochemical, luminescence, uHTS hits (AID 488783); type: functional
[7] = target: T2, Alkaline phosphatase, tissue-nonspecific isozyme (Homo sapiens, UniProt P05186); experiment: activation of tissue-nonspecific alkaline phosphatase – biochemical, TNAP isozyme, mouse IAP uHTS hits, selectivity assay for mouse IAP activator project, dose response (AID 488880); type: functional
T2 sequence (P05186 whole entry): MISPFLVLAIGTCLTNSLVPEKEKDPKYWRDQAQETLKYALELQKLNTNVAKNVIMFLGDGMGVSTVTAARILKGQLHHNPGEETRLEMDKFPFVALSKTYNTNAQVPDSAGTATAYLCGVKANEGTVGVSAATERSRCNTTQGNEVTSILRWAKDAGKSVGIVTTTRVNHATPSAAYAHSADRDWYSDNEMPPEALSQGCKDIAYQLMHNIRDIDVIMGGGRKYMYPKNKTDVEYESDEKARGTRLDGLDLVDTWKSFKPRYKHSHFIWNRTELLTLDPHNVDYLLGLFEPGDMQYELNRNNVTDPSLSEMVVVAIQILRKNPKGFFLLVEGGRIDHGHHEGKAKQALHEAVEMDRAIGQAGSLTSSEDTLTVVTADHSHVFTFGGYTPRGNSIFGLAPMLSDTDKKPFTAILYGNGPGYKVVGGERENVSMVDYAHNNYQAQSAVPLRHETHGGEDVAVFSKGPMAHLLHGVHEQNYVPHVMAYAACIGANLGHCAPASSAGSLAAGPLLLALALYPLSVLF

[8] = target: T3, CAAX prenyl protease 2 (Saccharomyces cerevisiae S288c, UniProt Q03530); type: biochemical
T3 sequence (Q03530 whole entry): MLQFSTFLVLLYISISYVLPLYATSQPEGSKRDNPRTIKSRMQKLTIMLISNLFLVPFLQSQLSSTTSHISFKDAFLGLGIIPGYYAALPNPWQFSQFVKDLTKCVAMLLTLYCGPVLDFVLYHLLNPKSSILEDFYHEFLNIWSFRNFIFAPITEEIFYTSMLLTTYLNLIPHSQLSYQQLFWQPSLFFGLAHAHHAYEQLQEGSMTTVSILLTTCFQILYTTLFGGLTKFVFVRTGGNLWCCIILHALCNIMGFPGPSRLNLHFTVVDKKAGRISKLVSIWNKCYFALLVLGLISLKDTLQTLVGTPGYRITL

[9] = toxicity toward cultured mammalian cells – cell-based, plate reader, cherry-pick samples, cytotoxicity control, dose response (AID 504397); type: functional
[10] = target: T4, CAAX prenyl protease 2 (Homo sapiens, UniProt Q9Y256); experiment: inhibition of Ras-converting CAAX protease Rce1 – biochemical, yeast membranes, quenched-peptide fluorescence, cherry-pick, dose response (AID 588849)
T4 sequence (Q9Y256 whole entry): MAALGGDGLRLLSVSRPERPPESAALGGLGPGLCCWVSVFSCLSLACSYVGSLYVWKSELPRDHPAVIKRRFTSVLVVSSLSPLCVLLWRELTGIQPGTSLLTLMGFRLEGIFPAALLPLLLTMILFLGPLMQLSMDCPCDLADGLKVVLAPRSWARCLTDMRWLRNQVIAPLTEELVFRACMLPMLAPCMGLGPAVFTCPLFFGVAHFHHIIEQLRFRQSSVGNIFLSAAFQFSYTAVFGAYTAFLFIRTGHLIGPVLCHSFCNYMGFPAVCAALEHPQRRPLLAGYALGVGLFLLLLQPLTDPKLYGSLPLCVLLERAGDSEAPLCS

[11] = target: T5, Bcl-2-related protein A1 (Mus musculus, UniProt Q07440); type: functional;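 further: confirmatory dose–response counterscreen on Bfl-1, used to check hits from a UBC13 polyubiquitin inhibitor campaign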
T5 sequence (Q07440 whole entry): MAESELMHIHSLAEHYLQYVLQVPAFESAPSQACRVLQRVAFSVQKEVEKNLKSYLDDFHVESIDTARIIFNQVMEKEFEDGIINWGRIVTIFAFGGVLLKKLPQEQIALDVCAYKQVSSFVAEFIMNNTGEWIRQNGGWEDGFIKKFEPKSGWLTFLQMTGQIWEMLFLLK

[12] = target: T6, Ubiquitin-conjugating enzyme E2 N (Homo sapiens, UniProt P61088); type: functional
T6 sequence (P61088 whole entry): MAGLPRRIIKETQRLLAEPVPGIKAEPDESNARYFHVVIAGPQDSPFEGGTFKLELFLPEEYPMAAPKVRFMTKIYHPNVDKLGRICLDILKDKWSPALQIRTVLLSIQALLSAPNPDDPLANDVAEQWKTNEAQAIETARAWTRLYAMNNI

[13] = target: T6, Ubiquitin-conjugating enzyme E2 N; type: functional; remark: listed apart in the source
[14] = luciferase reporter signal suppression in cells – H4 neuroglioma cells, luminescence, dose response (AID 1990); type: functional, cell-based
[15] = Luminescence Cell-Based Dose Response HTS to Identify Inhibitors of 5'UTR Stem-Loop Driven Prion Protein mRNA Translation in H4 Neuroglioblastoma Cells. [Related pubchem assays: 1827 (Project Summary), 1813 (Primary HTS)]; type: functional
[16] = target: T7, Voltage-gated N-type calcium channel alpha-1B subunit/Amyloid beta A4 precursor protein-binding family A member 1 (Homo sapiens, UniProt Q00975+Q02410); type: protein assay
[17] = alpha-synuclein stem-loop luciferase translation blockers – H4 neuroglioma cells, luminescence, confirmation (AID 1988); type: functional, cell-based
[18] = target: T7, Voltage-gated N-type calcium channel alpha-1B subunit/Amyloid beta A4 precursor protein-binding family A member 1; type: protein assay; remark: listed apart in the source
[19] = target: T8, Mannose-6-phosphate isomerase (Homo sapiens, UniProt P34949); experiment: phosphomannose isomerase inhibition – biochemical, fluorescence intensity, confirmation (AID 1535)
T8 sequence (P34949 whole entry): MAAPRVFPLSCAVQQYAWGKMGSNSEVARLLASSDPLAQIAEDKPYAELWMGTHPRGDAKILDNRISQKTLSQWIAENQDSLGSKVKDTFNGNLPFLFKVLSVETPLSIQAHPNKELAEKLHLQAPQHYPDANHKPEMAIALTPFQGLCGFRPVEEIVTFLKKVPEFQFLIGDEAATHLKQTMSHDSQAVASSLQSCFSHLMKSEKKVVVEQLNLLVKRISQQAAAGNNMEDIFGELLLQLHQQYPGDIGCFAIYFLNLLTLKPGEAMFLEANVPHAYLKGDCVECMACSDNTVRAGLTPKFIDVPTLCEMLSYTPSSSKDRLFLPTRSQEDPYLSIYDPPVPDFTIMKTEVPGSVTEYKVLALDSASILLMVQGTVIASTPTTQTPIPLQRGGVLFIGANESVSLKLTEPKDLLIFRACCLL

[20] = target: T9, Phosphomannomutase 2 (Homo sapiens, UniProt O15305); experiment: Counter screen SAR assay for PMM2 inhibitors via a fluorescence intensity assay. [Related pubchem assays (depositor defined):AID1545, AID1574]
T9 sequence (O15305 whole entry): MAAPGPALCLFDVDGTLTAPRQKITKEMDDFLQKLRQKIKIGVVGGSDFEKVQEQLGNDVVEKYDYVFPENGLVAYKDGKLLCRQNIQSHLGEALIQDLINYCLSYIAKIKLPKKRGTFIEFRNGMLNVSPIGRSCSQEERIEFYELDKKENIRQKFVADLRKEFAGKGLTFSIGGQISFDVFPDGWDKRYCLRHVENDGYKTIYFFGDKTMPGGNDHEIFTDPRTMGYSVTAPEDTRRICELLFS

[21] = target: T10, Hexokinase HKDC1 (Homo sapiens, UniProt Q2TB90); experiment: activation of HKDC1 glucose phosphorylation – biochemical, W721R variant, dose response (AID 504730); type: functional
T10 sequence (Q2TB90 whole entry): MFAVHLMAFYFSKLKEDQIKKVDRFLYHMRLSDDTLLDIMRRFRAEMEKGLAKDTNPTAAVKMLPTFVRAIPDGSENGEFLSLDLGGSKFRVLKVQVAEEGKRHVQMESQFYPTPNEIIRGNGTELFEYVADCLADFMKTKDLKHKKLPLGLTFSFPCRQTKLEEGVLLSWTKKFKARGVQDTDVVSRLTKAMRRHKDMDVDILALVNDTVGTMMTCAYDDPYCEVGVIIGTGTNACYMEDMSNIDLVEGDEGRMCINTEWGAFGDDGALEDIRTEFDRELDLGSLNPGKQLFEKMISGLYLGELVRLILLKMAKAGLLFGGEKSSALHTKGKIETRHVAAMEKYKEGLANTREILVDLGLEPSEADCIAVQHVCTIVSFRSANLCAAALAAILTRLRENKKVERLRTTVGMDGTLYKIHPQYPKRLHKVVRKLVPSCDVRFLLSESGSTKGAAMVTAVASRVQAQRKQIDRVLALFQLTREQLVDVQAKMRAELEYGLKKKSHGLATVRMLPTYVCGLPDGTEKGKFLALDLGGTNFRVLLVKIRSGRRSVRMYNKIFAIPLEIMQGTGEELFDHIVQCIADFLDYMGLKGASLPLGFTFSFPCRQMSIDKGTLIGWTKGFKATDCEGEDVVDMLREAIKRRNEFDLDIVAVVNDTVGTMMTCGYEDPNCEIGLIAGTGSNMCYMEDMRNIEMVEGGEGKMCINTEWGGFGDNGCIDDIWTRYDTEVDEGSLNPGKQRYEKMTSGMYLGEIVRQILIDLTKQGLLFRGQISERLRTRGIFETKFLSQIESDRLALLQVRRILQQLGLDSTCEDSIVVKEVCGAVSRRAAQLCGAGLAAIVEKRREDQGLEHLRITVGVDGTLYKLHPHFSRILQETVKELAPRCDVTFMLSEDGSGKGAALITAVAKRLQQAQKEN

[22] = target: Eukaryotic translation initiation factor 4E (Mus musculus, UniProt P63073); experiment: blockers of eIF4G binding by eIF4E – biochemical, TR-FRET, dose response (AID 855); type: functional;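 further: potency for disrupting eIF4E binding to eIF4GI seen as loss of FRET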
[23] = target: DNA dC->dU-editing enzyme APOBEC-3G (Homo sapiens, UniProt Q9HC16); experiment: Dose Response confirmation of small molecule APOBEC3G DNA Deaminase Inhibitors via a fluorescence-based single-stranded DNA deaminase assay. [Related pubchem assays (depositor defined):AID493012, AID493028]; type: functional
[24] = target: Hexokinase-1 (Homo sapiens, UniProt P19367); experiment: HK1 enzyme activation by HKDC1 hits – biochemical, selectivity assay for HKDC1 activator project, dose response (AID 504762); type: functional

T7 sequence (Q00975 whole entry): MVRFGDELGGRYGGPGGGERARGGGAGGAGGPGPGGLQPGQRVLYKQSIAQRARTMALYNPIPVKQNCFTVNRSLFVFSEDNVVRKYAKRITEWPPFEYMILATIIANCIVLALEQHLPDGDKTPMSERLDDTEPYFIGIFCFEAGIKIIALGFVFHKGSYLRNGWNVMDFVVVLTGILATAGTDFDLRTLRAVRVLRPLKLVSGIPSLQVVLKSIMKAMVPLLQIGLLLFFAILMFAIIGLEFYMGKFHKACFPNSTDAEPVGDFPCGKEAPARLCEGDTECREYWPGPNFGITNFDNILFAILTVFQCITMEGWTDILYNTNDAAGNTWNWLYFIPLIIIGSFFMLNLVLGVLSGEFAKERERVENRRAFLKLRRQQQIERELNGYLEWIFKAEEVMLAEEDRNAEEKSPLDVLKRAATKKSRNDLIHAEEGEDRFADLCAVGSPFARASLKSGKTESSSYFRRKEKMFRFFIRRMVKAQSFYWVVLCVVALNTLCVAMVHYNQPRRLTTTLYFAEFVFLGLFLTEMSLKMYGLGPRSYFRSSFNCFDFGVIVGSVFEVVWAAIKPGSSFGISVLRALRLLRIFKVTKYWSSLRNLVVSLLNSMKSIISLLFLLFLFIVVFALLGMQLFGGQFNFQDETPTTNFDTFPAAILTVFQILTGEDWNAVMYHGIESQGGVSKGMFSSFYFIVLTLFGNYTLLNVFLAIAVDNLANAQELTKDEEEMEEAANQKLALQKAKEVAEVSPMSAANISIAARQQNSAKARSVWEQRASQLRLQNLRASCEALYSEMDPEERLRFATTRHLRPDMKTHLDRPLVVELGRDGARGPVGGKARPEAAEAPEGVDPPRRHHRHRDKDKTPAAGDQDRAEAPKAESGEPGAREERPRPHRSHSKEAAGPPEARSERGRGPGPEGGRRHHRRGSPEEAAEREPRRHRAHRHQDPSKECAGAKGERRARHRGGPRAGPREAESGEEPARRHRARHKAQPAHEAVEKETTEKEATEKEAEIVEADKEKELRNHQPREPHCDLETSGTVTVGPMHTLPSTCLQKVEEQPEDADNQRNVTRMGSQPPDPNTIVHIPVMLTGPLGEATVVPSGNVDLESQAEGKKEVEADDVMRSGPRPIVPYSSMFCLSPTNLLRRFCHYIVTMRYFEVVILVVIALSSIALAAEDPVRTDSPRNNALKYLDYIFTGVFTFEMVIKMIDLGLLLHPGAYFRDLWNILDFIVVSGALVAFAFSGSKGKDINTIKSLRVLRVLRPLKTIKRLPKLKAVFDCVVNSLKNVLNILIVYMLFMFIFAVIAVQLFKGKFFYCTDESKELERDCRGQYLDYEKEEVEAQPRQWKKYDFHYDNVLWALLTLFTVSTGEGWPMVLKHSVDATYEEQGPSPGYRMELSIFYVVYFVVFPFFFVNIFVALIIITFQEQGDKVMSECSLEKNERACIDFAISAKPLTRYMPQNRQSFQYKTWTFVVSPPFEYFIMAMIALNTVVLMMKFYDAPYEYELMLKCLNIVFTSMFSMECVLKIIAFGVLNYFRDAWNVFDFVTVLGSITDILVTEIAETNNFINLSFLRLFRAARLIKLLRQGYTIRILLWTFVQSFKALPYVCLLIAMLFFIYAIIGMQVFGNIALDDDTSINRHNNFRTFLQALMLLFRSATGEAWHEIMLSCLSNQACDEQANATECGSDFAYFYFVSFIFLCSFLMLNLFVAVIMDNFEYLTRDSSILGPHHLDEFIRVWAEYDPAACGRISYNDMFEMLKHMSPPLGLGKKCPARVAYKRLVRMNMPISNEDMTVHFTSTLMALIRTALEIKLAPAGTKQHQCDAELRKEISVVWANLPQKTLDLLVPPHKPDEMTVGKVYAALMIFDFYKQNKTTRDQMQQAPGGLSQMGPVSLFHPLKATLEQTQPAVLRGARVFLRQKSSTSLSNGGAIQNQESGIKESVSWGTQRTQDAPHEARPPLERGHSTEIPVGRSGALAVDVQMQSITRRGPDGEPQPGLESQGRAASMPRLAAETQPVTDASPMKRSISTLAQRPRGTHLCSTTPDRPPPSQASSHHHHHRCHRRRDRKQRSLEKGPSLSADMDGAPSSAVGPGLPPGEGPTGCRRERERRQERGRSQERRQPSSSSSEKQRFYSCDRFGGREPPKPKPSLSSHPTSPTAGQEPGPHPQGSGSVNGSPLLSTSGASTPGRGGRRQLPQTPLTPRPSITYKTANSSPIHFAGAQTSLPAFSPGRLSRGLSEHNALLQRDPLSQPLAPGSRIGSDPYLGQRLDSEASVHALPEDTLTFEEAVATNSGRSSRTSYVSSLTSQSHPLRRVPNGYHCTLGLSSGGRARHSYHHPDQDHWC
T7 sequence (Q02410 whole entry): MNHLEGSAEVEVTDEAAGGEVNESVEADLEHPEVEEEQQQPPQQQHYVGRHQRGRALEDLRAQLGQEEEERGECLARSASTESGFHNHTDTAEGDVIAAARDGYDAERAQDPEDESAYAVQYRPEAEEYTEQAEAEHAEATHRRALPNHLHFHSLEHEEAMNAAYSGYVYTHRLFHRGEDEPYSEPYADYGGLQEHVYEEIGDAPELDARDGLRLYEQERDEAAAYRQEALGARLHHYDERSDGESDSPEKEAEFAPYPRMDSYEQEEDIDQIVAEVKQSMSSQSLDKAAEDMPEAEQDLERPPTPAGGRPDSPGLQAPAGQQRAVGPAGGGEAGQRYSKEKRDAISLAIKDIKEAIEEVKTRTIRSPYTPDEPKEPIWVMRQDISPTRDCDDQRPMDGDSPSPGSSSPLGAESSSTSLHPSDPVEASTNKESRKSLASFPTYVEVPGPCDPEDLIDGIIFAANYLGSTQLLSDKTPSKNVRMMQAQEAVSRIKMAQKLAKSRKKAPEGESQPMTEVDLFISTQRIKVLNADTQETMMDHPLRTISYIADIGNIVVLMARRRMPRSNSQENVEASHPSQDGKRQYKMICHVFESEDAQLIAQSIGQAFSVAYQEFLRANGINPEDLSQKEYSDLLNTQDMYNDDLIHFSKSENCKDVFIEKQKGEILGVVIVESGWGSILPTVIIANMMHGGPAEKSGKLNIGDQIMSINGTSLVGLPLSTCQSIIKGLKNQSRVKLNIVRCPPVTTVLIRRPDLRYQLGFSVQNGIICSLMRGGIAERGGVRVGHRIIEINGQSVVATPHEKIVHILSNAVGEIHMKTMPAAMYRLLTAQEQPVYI
Sequence of DNA dC->dU-editing enzyme APOBEC-3G (Q9HC16 whole entry): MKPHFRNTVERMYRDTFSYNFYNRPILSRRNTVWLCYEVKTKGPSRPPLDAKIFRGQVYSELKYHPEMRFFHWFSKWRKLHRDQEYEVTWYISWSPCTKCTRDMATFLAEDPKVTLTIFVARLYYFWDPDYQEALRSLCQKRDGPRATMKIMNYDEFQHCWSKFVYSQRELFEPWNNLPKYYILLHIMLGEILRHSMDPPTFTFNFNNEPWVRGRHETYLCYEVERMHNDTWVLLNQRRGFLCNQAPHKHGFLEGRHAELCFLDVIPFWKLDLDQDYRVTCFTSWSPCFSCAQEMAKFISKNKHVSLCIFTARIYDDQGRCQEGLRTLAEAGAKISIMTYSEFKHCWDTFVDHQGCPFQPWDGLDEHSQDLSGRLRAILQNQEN
Sequence of Intestinal-type alkaline phosphatase (Homo sapiens, UniProt P09923) (P09923 whole entry): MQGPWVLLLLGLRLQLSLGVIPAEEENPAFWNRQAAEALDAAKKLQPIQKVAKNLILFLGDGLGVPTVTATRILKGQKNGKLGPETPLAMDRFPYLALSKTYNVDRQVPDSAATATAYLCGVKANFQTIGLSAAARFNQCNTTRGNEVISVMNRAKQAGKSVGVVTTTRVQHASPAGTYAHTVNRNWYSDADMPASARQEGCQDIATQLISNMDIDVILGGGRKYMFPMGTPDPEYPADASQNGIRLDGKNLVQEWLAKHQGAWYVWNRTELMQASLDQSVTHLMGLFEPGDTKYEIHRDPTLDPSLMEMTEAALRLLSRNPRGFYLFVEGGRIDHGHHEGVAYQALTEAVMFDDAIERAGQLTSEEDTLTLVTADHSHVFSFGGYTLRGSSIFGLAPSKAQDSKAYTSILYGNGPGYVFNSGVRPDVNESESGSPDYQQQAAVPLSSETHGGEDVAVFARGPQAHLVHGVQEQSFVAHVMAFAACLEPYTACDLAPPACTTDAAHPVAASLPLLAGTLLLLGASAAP
Sequence of Intestinal-type alkaline phosphatase (Mus musculus, UniProt P24822) (P24822 whole entry): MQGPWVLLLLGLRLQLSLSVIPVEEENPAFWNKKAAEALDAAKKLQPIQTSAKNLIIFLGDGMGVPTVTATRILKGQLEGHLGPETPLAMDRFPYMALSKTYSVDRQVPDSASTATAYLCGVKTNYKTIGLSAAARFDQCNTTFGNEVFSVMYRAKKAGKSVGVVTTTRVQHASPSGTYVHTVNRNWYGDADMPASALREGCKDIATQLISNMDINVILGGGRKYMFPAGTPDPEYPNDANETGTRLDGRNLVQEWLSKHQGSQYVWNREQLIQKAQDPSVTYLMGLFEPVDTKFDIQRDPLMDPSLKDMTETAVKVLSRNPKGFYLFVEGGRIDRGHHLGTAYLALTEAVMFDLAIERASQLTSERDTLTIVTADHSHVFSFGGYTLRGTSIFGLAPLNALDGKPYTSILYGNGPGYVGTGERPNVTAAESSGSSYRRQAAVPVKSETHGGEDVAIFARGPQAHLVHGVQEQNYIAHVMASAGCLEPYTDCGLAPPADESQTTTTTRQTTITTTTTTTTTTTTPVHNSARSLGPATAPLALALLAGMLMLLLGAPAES
Sequence of Eukaryotic translation initiation factor 4E (P63073 whole entry): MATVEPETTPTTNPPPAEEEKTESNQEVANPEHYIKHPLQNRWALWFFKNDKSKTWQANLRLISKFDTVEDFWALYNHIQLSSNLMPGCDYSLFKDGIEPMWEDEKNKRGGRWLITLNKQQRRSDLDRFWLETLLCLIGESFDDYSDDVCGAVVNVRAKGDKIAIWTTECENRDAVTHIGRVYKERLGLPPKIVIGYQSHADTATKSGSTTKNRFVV

CCOC(=O)c1c(-c2cccs2)csc1NC(=O)CCCC(=O)O
IC50 [1]: 20.3 µM (active)
EC50 [2]: 69.1 µM (inactive)
EC50 [3]: > 79.4 µM (not active)
EC50 [4]: 39.6 µM (not active)

Cc1ccc(NC(=O)CCNS(=O)(=O)c2ccc3[nH]c(=O)oc3c2)cc1F
EC50 [5]: > 100 µM (inactive)
EC50 [6]: 1.76 µM (active)
EC50 [7]: > 100 µM (inactive)

Cc1cccc(OCCN2C(=O)C(=O)c3cc(C)ccc32)c1
AC50 [8]: 1.11 µM (active)
AC50 [9]: 73.6 µM (active)
AC50 [10]: 18.1 µM (active)

CC(C)C[C@H](N)c1cn([C@@H](Cc2cc3ccccc3[nH]2)C(=O)N2CCNCC2)nn1
IC50 [11]: > 20 µM (inactive)
IC50 [12]: 15.8 µM (active)
IC50 [13]: 14 µM (active)

Cc1ccc(/N=c2\ssnc2Cl)cc1
EC50 [14]: > 120 µM (not active)
EC50 [15]: > 120 µM (not active)
IC50 [16]: 9.27 µM (active)
EC50 [17]: > 120 µM (not active)
IC50 [18]: 2.85 µM (active)
IC50 [19]: 18.6 µM (active)
IC50 [20]: > 100 µM (inactive)
EC50 [21]: 59 µM (inactive)
IC50 [22]: 35.4 µM (inactive)
IC50 [23]: 10.2 µM (active)
EC50 [24]: 53.2 µM (inactive)
